Row | SMILES | melting point
1 | CC(=O)c1c(N2C[C@@H](C)O[C@@H](C)C2)[nH]c(-c2ccncc2)c1C [Example 80, 3-Acetyl-2-(cis-2,6-dimethylmorpholin-4-yl)-4-methyl-5-(4-pyridyl)-1H-pyrrole] | 95 to 100 °C
2 | CC(=O)c1c(N2CCN(c3ccccn3)CC2)[nH]c(-c2ccncc2)c1C [Example 81, 3-Acetyl-4-methyl-5-(4-pyridyl)-2-{4-(2-pyridyl)piperazin-1-yl}-1H-pyrrole] | 89 to 92 °C
3 | Cc1c(-c2ccncc2)[nH]c2c1C(=O)C(C)(C)CC2 [Example 82 (3,5,5-trimethyl), 4-Oxo-2-(4-pyridyl)-3,5,5-trimethyl-4,5,6,7-tetrahydro-1H-indole] | 237 to 239 °C
4 | Cc1c(-c2ccncc2)[nH]c2c1C(=O)CCC2(C)C [Example 82 (3,7,7-trimethyl), 4-Oxo-2-(4-pyridyl)-3,7,7-trimethyl-4,5,6,7-tetrahydro-1H-indole] | 278 to 280 °C
5 | Cc1c(-c2ccncc2)[nH]c2c1C(=O)CC(C)C2 (centres unmarked) [Example 86, 3,6-Dimethyl-4-oxo-2-(4-pyridyl)-4,5,6,7-tetrahydro-1H-indole] | 247 to 248 °C
6 | Cc1c(-c2ccncc2)[nH]c2c1C(=O)CSC2 [Example 87, 3-Methyl-4-oxo-2-(4-pyridyl)-6-thia-4,5,6,7-tetrahydro-1H-indole] | 209 to 210 °C
7 | CC(=O)c1c(C=O)[nH]c(-c2ccncc2)c1C [Example 88, 3Acetyl-2-formyl-4-methyl-5-(4-pyridyl)-1H-pyrrole] | 208 to 209 °C
8 | CC(=O)c1c(CO)[nH]c(-c2ccncc2)c1C [Example 89, 3-Acetyl-2-hydroxymethyl-4-methyl-5-(4-pyridyl)-1H-pyrrole] | 163 to 165 °C

The next lines start with the values.

Row | melting point | SMILES
9 | 218 to 220 °C | CC(=O)c1c(-c2ccco2)[nH]c(-c2ccncc2)c1C [Example 69, 3-Acetyl-2-(2-furyl)-4-methyl-5-(4-pyridyl)-1H-pyrrole]
10 | 240 to 244 °C | CC(=O)c1c(-c2ccsc2)[nH]c(-c2ccncc2)c1C [Example 70, 3-Acetyl-4-methyl-5-(4-pyridyl)-2-(3-thienyl)-1H-pyrrole]
11 | 169 to 172 °C | CSc1ccc(-c2[nH]c(-c3ccncc3)c(C)c2C(C)=O)cc1 [Example 71, 3-Acetyl-4-methyl-2-(4-methylthiophenyl)-5-(4-pyridyl)-1H-pyrrole]
12 | 178.5 to 179.5 °C | CC(=O)c1c(-c2ccc(C(F)(F)F)cc2)[nH]c(-c2ccncc2)c1C [Example 73, 3-Acetyl-4-methyl-5-(4-pyridyl)-2-(4-trifluoromethylphenyl)-1H-pyrrole]
13 | 249 to 250 °C | CC(=O)c1c(-c2ccc([S+](C)[O-])cc2)[nH]c(-c2ccncc2)c1C (centres unmarked) [Example 75, 3-Acetyl-4-methyl-2-(4-methylsulfinylphenyl)-5-(4-pyridyl)-1H-pyrrole]
14 | 218 to 220 °C | CC(=O)c1c(N2CCN(c3ccccc3)CC2)[nH]c(-c2ccncc2)c1C [Example 78, 3-Acetyl-4-methyl-2-(4-phenylpiperazin-1-yl)-5-(4-pyridyl)-1H-pyrrole]
15 | 187 to 188 °C | CC(=O)c1c([N+](=O)[O-])[nH]c(-c2ccncc2)c1C [Example 84, 3-Acetyl-4-methyl-2-nitro-5-(4-pyridyl)-1H-pyrrole]
16 | 199 to 201 °C | Cc1c(-c2ccncc2)[nH]c(-c2ccncc2)c1C(=O)CC(C)C [Example 90, 4-Methyl-3-(3-methylbutanoyl)-2,5-di(4-pyridyl)-1H-pyrrole]
17 | 202 to 204 °C | COC(=O)c1c(-c2ccccc2)[nH]c(-c2ccncc2)c1C [Example 91, Methyl 4-Methyl-2-phenyl-5-(4-pyridyl)pyrrole-3-carboxylate]
